Values joined by “and” are separate entries in the source; they are usually repeats but may differ in a detail not shown here. Equal entries are not always repeated.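 96-well plates; 48 h exposure; 5 concentrations. Endpoints by linear interpolation between flanking doses. Not reached: highest tested concentration assigned. GI50: concentration for 50% inhibition of growth. TGI: total growth inhibition.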 Where a SMILES comes first, the peptide text is derived from it. The star is where a group is joined. Boc = CC(C)(C)OC(=O)*; Bn = c1ccc(C*)cc1
Columns and labels:
Assay in all cases: NCI tumour cell line growth inhibition, 48 h
[1] = tested on: PC-3 prostate
[2] = tested on: HOP-62 NSCLC
[3] = tested on: SK-MEL-2 melanoma
[4] = tested on: IGROV1 ovarian
[5] = tested on: EKVX NSCLC
[6] = tested on: COLO 205 colon
[7] = tested on: MCF7 breast
[8] = tested on: A549 NSCLC
[9] = tested on: NCI-H522 lung
[10] = tested on: SF-268 CNS
[11] = tested on: MDA-MB-231 breast
[12] = tested on: SNB-75 CNS
[13] = tested on: BT-549 breast

SMILES: O=C(/N=C1/OC(CN2CCOCC2)CN1C(=O)Nc1ccccc1)Nc1ccccc1 (stereo not given)
- TGI [1]: > 100 µM
- TGI [2]: > 100 µM
- TGI [3]: > 100 µM
- TGI [4]: > 100 µM
- TGI [5]: > 100 µM
- TGI [6]: > 100 µM
- TGI [7]: > 100 µM
- TGI [8]: > 100 µM
- TGI [9]: > 100 µM
- TGI [10]: > 100 µM
- TGI [11]: > 100 µM
- TGI [12]: > 100 µM
- TGI [13]: > 100 µM

SMILES: CCC1(CC)C(=O)NN(C(=O)c2ccc(Cl)cc2)C1=O
- TGI [1]: > 100 µM
- TGI [2]: > 100 µM
- TGI [3]: > 100 µM
- TGI [4]: > 100 µM
- TGI [5]: > 100 µM
- TGI [6]: > 100 µM
- TGI [7]: > 100 µM
- TGI [8]: > 100 µM
- TGI [9]: > 100 µM
- TGI [10]: > 100 µM
- TGI [11]: > 100 µM
- TGI [12]: > 100 µM
- TGI [13]: > 100 µM

SMILES: O=c1[nH]c2cc3[nH]c(=O)c(=O)[nH]c3cc2[nH]c1=O
- TGI [1]: > 100 µM
- TGI [3]: > 100 µM
- TGI [4]: > 100 µM
- TGI [5]: > 100 µM
- TGI [6]: > 100 µM
- TGI [7]: > 100 µM
- TGI [8]: > 100 µM
- TGI [9]: > 100 µM
- TGI [10]: > 100 µM
- TGI [11]: > 100 µM
- TGI [12]: > 100 µM
- TGI [13]: > 100 µM

SMILES: O=C1CC2(CCNCC2)C(=O)N1N1CCCCC1
- TGI [1]: > 100 µM
- TGI [2]: > 100 µM
- TGI [3]: > 100 µM
- TGI [4]: > 100 µM
- TGI [5]: > 100 µM
- TGI [6]: > 100 µM
- TGI [7]: > 100 µM
- TGI [8]: > 100 µM
- TGI [9]: > 100 µM
- TGI [10]: > 100 µM
- TGI [11]: > 100 µM
- TGI [12]: > 100 µM
- TGI [13]: > 100 µM

SMILES: COc1ccc2cc(/C=N\NC(=O)Nc3ccc([N+](=O)[O-])cc3)ccc2c1
- TGI [1]: 18.8 µM
- TGI [2]: 41.6 µM
- TGI [3]: 20.5 µM
- TGI [4]: 23.2 µM
- TGI [5]: 25 µM
- TGI [6]: 17.9 µM
- TGI [7]: > 31.6 µM
- TGI [8]: 18.5 µM
- TGI [9]: 26.4 µM
- TGI [10]: > 31.6 µM
- TGI [11]: 19.1 µM
- TGI [12]: 23.1 µM
- TGI [13]: 18.6 µM

SMILES: C=CCN1C(=O)/C(=C/c2ccc(OC)cc2)N=C1SC1OC(COC(C)=O)C(OC(C)=O)C(OC(C)=O)C1OC(C)=O (stereo not given)
- GI50 [1]: 16.9 µM and 52.6 µM
- TGI [1]: 37.1 µM and > 100 µM
- GI50 [2]: 17.5 µM and 90 µM
- TGI [2]: 40 µM and > 100 µM
- GI50 [3]: 21.1 µM and 51.7 µM
- TGI [3]: 54.8 µM and > 100 µM
- GI50 [4]: 20.4 µM and 75.4 µM
- TGI [4]: > 100 µM
- TGI [5]: 46 µM and > 100 µM
- TGI [6]: > 100 µM
- GI50 [7]: 11.7 µM and > 100 µM
- TGI [7]: > 100 µM
- TGI [8]: > 100 µM
- GI50 [9]: 5.2 µM and 16.4 µM
- TGI [9]: > 100 µM
- GI50 [11]: 18.8 µM and 39.2 µM
- TGI [11]: 42.9 µM and > 100 µM
- TGI [12]: 40.7 µM and > 100 µM
- TGI [13]: 38.1 µM and 96.1 µM

SMILES: CC(C)(C)CN1[C@@H]2CCCC[C@H]2N(CC(C)(C)C)P1(=O)C(O)/C=C/c1ccccc1 (stereo not given in full)
- TGI [1]: > 100 µM
- TGI [2]: > 100 µM
- TGI [3]: 93.1 µM
- TGI [4]: > 100 µM
- TGI [5]: > 100 µM
- TGI [6]: 34.2 µM
- TGI [7]: > 100 µM
- TGI [8]: > 100 µM
- TGI [9]: > 100 µM
- TGI [10]: > 100 µM
- TGI [11]: > 100 µM
- TGI [12]: > 100 µM
- TGI [13]: > 100 µM

SMILES: O=[N+]([O-])c1cc2ccc1OCc1cccc(n1)COc1ccc(cc1[N+](=O)[O-])C=NCCCCCCCCN=C2
- TGI [1]: > 100 µM
- TGI [2]: > 100 µM
- TGI [3]: > 100 µM
- TGI [4]: > 100 µM
- TGI [5]: > 100 µM
- TGI [6]: > 100 µM
- TGI [7]: > 100 µM
- TGI [8]: > 100 µM
- TGI [9]: > 100 µM
- TGI [10]: > 100 µM
- TGI [11]: > 100 µM
- TGI [12]: > 100 µM
- TGI [13]: > 100 µM

SMILES: Cc1ccc(C2=Nn3c(nc4sc5c(c4c3=O)CCCC5)SC2)cc1
- TGI [1]: > 100 µM
- TGI [2]: > 100 µM
- TGI [4]: > 100 µM
- TGI [5]: > 100 µM
- TGI [6]: > 100 µM
- TGI [7]: > 100 µM
- TGI [8]: > 100 µM
- TGI [9]: > 100 µM
- TGI [10]: > 100 µM
- TGI [11]: > 100 µM
- TGI [12]: > 100 µM
- TGI [13]: > 100 µM

SMILES: N#Cc1nc(-c2ccc(-c3nc(C#N)c(N)o3)cc2)oc1N
- TGI [1]: > 10 µM
- TGI [2]: > 10 µM
- TGI [4]: > 10 µM
- TGI [5]: > 10 µM
- TGI [6]: > 10 µM
- TGI [7]: > 10 µM
- TGI [8]: > 10 µM
- TGI [9]: > 10 µM
- TGI [10]: > 10 µM
- TGI [11]: > 10 µM
- TGI [12]: > 10 µM
- TGI [13]: > 10 µM

SMILES: Cn1c(-c2cccs2)cc(-c2ccsc2)c1-c1cccs1
- TGI [1]: > 100 µM
- TGI [2]: > 100 µM
- TGI [4]: > 100 µM
- TGI [5]: > 100 µM
- TGI [6]: 46.5 µM
- TGI [7]: > 100 µM
- TGI [8]: > 100 µM
- TGI [9]: > 100 µM
- TGI [10]: > 100 µM
- TGI [11]: > 100 µM
- TGI [12]: > 100 µM
- TGI [13]: > 100 µM

SMILES: COC(=O)C(CC(C)C)NC(=O)CNC(=O)C(Cc1ccc(OCc2ccccc2)cc1)NC(=O)C(COCc1ccccc1)NC(=O)OC(C)(C)C (stereo not given) (Boc-S(Bn)Y(Bn)GL-OMe; configuration not given here)
- TGI [1]: > 100 µM
- TGI [2]: > 100 µM
- TGI [4]: > 100 µM
- TGI [5]: > 100 µM
- TGI [6]: > 100 µM
- TGI [7]: > 100 µM
- TGI [8]: > 100 µM
- TGI [9]: > 100 µM
- TGI [10]: > 100 µM
- TGI [11]: > 100 µM
- TGI [12]: > 100 µM
- TGI [13]: > 100 µM

SMILES: COc1cc(/C=C2\C(=O)N(c3ccc(NC(C)=O)cc3)C(c3ccccc3)S2(=O)=O)cc(OC)c1OC (stereo not given)
- TGI [1]: > 100 µM
- TGI [2]: > 100 µM
- TGI [3]: > 100 µM
- TGI [4]: > 100 µM
- TGI [5]: > 100 µM
- TGI [6]: > 100 µM
- TGI [7]: > 100 µM
- TGI [8]: > 100 µM
- TGI [9]: > 100 µM
- TGI [11]: > 100 µM
- TGI [12]: > 100 µM
- TGI [13]: > 100 µM

SMILES: CC(C)(C)Cc1cc(O)ccc1O
- TGI [1]: > 100 µM
- TGI [2]: > 100 µM
- TGI [4]: > 100 µM
- TGI [5]: > 100 µM
- TGI [6]: > 100 µM
- TGI [7]: > 100 µM
- TGI [8]: > 100 µM
- TGI [9]: 86.7 µM
- TGI [10]: > 100 µM
- TGI [11]: > 100 µM
- TGI [12]: > 100 µM
- TGI [13]: > 100 µM

SMILES: CC(C)(C)OC(=O)NC(Cc1ccc(OCc2ccccc2)cn1)C(N)=O (stereo not given)
- TGI [1]: > 100 µM
- TGI [2]: > 100 µM
- TGI [4]: > 100 µM
- TGI [5]: > 100 µM
- TGI [6]: > 100 µM
- TGI [7]: > 100 µM
- TGI [8]: > 100 µM
- TGI [9]: > 100 µM
- TGI [10]: > 100 µM
- TGI [11]: > 100 µM
- TGI [12]: > 100 µM
- TGI [13]: > 100 µM

SMILES: N#CCCN(CCCN(C(=O)Nc1ccc(NC(=O)N(CCCN(CCC#N)C(N)=O)c2ccccc2)cc1)c1ccccc1)C(N)=O
- TGI [1]: > 100 µM
- TGI [2]: > 100 µM
- TGI [3]: > 100 µM
- TGI [5]: > 100 µM
- TGI [6]: > 100 µM
- TGI [7]: > 100 µM
- TGI [8]: > 100 µM
- TGI [9]: > 100 µM
- TGI [10]: > 100 µM
- TGI [11]: > 100 µM
- TGI [12]: > 100 µM
- TGI [13]: > 100 µM

— PubChem BioAssay (NCI)
